# Earlier results in patent US20250169496A1, “USE OF 2-AMINO-3-HYDROXY-3-METHYLBUTYRIC ACID AND/OR 2-AMINO-3-(4-HYDROXYPHENYL) BUTYRIC ACID” (NANJING TIANNONG BIOTECHNOLOGY CO., LTD., priority 2021, published 2025).
# Tested on: Lactobacihs arabinosu
# Details: cited from earlier work
smiles,measurement,value
CC(C)(O)[C@H](N)C(=O)O [L-2-amino-3-hydroxy-3-methylbutyric acid],Inhibition of the synthesis of valine,could inhibit the synthesis of valine
